Columns and labels:
[1] = target: T1, human sodium glucose cotransporter 2 (Homo sapiens, UniProt P31639); test: SGLT-2 assay: 14C-AMG uptake in CHO-hSGLT2 or HEK293-hSGLT2 cells; format: cell-based; details: n = 1-4, hSGLT2-transfected cells, read-out: SGLT2 IC50 nM (n = 1-4)
T1 construct: expressed in transfected cells; host or cells: CHO-K1 (ATCC CCL-61) or HEK293 (ATCC CRL-1573), stably transfected with pZeoSV expression vector
T1 sequence (P31639 1-672): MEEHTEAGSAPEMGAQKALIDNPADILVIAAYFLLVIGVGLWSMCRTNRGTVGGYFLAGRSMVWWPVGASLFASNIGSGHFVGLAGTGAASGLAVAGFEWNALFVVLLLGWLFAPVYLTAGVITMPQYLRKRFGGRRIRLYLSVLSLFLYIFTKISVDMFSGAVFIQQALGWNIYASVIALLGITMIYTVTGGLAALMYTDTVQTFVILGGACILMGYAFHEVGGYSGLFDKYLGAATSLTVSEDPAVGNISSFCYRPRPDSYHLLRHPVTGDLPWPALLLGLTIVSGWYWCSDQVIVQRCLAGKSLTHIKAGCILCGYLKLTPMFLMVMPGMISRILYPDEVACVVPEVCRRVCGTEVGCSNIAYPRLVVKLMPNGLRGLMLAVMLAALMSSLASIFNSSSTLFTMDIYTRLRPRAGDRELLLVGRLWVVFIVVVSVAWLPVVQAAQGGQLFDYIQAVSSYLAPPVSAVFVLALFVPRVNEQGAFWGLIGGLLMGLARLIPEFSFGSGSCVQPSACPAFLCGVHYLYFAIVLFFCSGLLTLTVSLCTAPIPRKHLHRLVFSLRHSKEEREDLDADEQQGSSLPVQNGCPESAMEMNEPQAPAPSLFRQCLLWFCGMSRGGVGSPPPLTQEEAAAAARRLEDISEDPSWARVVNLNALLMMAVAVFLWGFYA
Procedure: These cell lines transport 14 C-labelled alpha-methyl-glucopyranoside (14 C-AMG, Amersham) into the interior of the cell in sodium-dependent manner.
The SGLT-2 assay is carried out as follows: CHO-hSGLT2 cells are cultivated in Ham's F12 Medium (BioWhittaker) with 10% foetal calf serum and 250 μg/mL zeocin (Invitrogen), and HEK293-hSGLT2 cells are cultivated in DMEM medium with 10% foetal calf serum and 250 μg/mL zeocin (Invitrogen). The cells are detached from the culture flasks by washing twice with PBS and subsequently treating with trypsin/EDTA. After the addition of cell culture medium the cells are centrifuged, resuspended in culture medium and counted in a Casy cell counter. Then 40,000 cells per well are seeded into a white, 96-well plate coated with poly-D-Iysine and incubated overnight at 37° C., 5% CO2. The cells are washenwice with 250 μl of assay buffer (Hanks Balanced Salt Solution, 137 mM NaCl, 5.4 mM KCl, 2.8 mM CaCl2, 1.2 mM MgSO4 and 10 mM HEPES (pH 7.4), 50 μg/mL of gentamycin). 250 μl of assay buffer and 5 μl of test compound are then added to each well and the plate is incubated for a further 15 minutes in the incubator. 5 μl of 10% DMSO are used as the negative control. The reaction is started by adding 5 μl of 14 C-AMG (0.05 μCi) to each well. After 2 hours' incubation at 37° C., 5% CO2, the cells are washed again with 250 μl of PBS (200C) and then lysed by the addition of 25 μl of 0.1 N NaOH (5 min. at 37° C.). 200 μl of MicroScint20 (Packard) are added to each well and incubation is continued for a further 20 min at 37° C. After this incubation the radioactivity of the 14 C-AMG absorbed is measured in a Topcount (Packard) using a 14 C scintillation program.

human SGLT1 = target: T2, human SGLT1 (Homo sapiens, UniProt P13866); test: hSGLT1 assay: analogous [14C]-AMG uptake in CHO-K1 or HEK293 cells expressing hSGLT1; format: cell-based; details: n = 1-4, hSGLT1-transfected cells
T2 construct: expressed in transfected cells; host or cells: CHO-K1 or HEK293 cells
T2 sequence (P13866 1-664): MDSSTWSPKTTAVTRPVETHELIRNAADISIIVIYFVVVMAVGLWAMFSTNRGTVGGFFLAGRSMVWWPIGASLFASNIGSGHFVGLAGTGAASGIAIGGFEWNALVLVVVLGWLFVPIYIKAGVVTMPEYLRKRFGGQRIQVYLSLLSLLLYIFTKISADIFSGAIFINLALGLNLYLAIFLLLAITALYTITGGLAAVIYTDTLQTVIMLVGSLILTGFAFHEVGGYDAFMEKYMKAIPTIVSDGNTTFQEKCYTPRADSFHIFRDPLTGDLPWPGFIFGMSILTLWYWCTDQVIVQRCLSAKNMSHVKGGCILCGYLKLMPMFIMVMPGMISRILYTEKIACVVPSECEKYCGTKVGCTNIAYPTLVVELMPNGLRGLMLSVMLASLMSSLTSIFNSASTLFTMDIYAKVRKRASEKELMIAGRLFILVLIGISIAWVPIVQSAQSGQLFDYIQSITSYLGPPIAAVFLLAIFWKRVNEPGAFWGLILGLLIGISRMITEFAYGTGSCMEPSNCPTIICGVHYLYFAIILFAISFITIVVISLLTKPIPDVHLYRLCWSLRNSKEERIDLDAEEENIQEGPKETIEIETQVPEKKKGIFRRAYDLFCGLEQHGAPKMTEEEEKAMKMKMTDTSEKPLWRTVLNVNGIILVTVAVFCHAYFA
Procedure: To determine human SGLT1 inhibitory activity, an analogous test was set up in which the cDNA for hSGLTI (Genbank Ace. No. NM000343) instead of hSGLT2 cDNA is expressed in CHO-K1 or HEK293 cells. The uptake assay buffer in the case of the hSGLT1 assay contains 10 mM HEPES, 5 mM Tris, 140 mM NaCl, 2 mM KCl, 1 mM CaCl2, and 1 mM MgCl2, pH 7.4 containing 0.5 mM of α-methyl-D-glucopyranoside (AMG), 10 μM of [^14C]-α-methyl-D-glucopyranoside and different inhibitor concentrations.

| IC50 [1] | IC50 (human SGLT1) | SMILES |
| --- | --- | --- |
| 85 nM | – | CCOc1ccc(Cc2cc([C@@H]3O[C@H](CSc4ncccn4)[C@@H](O)[C@H](O)[C@H]3O)ccc2Cl)cc1 [Example 8, (2S,3R,4R,5S,6S)-2-[4-Chloro-3-(4-ethoxy-benzyl)-phenyl]-6-(pyrimidin-2-ylsulfanylmethyl)-tetrahydro-pyran-3,4,5-triol] |
| 20 nM | < 1000 nM | CCOc1ccc(Cc2cc([C@@H]3O[C@H](CSc4nnnn4C)[C@@H](O)[C@H](O)[C@H]3O)ccc2Cl)cc1 [Example 10, (2S,3R,4R,5S,6S)-2-[4-Chloro-3-(4-ethoxy-benzyl)-phenyl]-6-(1-methyl-1H-tetrazol-5-ylsulfanylmethyl)-tetrahydro-pyran-3,4,5-triol] |
| 60 nM | < 1000 nM | CCOc1ccc(Cc2cc([C@@H]3O[C@H](CSc4cccs4)[C@@H](O)[C@H](O)[C@H]3O)ccc2Cl)cc1 [Example 11, (2S,3R,4R,5S,6S)-2-[4-Chloro-3-(4-ethoxy-benzyl)-phenyl]-6-(thiophen-2-ylsulfanylmethyl)-tetrahydro-pyran-3,4,5-triol] |
| 65 nM | – | CCOc1ccc(Cc2cc([C@@H]3O[C@H](CSc4nc5ccccc5[nH]4)[C@@H](O)[C@H](O)[C@H]3O)ccc2Cl)cc1 [Example 15, (2S,3S,4R,5R,6S)-2-(1H-Benzoimidazol-2-ylsulfanylmethyl)-6-[4-chloro-3-(4-ethoxy-benzyl)-phenyl]-tetrahydro-pyran-3,4,5-triol] |
| 36 nM | – | CCOc1ccc(Cc2cc([C@@H]3O[C@H](CSc4ccccc4CO)[C@@H](O)[C@H](O)[C@H]3O)ccc2Cl)cc1 [Example 23, (2S,3R,4R,5S,6S)-2-[4-Chloro-3-(4-ethoxy-benzyl)-phenyl]-6-(2-hydroxymethyl-phenylsulfanylmethyl)-tetrahydro-pyran-3,4,5-triol] |
| 57 nM | – | CCOc1ccc(Cc2cc([C@@H]3O[C@H](CSc4ccccc4C(N)=O)[C@@H](O)[C@H](O)[C@H]3O)ccc2Cl)cc1 [Example 24, 2-{(2S,3S,4R,5R,6S)-6-[4-Chloro-3-(4-ethoxy-benzyl)-phenyl]-3,4,5-trihydroxy-tetrahydro-pyran-2-ylmethylsulfanyl}-benzamide] |
| 7 nM | < 50 nM | CCOc1ccc(Cc2cc([C@@H]3O[C@H](CSc4cc(NC(C)=O)ccc4F)[C@@H](O)[C@H](O)[C@H]3O)ccc2Cl)cc1 [Example 25, N-(3-{(2S,3S,4R,5R,6S)-6-[4-Chloro-3-(4-ethoxy-benzyl)-phenyl]-3,4,5-trihydroxy-tetrahydro-pyran-2-ylmethylsulfanyl}-4-fluoro-phenyl)-acetamide] |
| 12 nM | < 50 nM | CCOc1ccc(Cc2cc([C@@H]3O[C@H](CSc4cc(C(N)=O)ccc4F)[C@@H](O)[C@H](O)[C@H]3O)ccc2Cl)cc1 [Example 26] |
| 6 nM | < 50 nM | CCOc1ccc(Cc2cc([C@@H]3O[C@H](CSc4cc(C(=O)NC)ccc4F)[C@@H](O)[C@H](O)[C@H]3O)ccc2Cl)cc1 [Example 27, 3-{(2S,3S,4R,5R,6S)-6-[4-Chloro-3-(4-ethoxy-benzyl)-phenyl]-3,4,5-trihydroxy-tetrahydro-pyran-2-ylmethylsulfanyl}-4-fluoro-N-methyl-benzamide] |
| 6 nM | – | CCOc1ccc(Cc2cc([C@@H]3O[C@H](CSc4cc(C(=O)N5CCCC5)ccc4F)[C@@H](O)[C@H](O)[C@H]3O)ccc2Cl)cc1 [Example 36, (3-{(2S,3S,4R,6R,6S)-6-[4-Chloro-3-(4-ethoxy-benzyl)-phenyl]-3,4,5-trihydroxy-tetrahydro-pyran-2-ylmethylsulfanyl}-4-fluoro-phenyl)-pyrrolidin-1-yl-methanone] |
| 28 nM | – | CCOc1ccc(Cc2cc([C@@H]3O[C@H](CSc4ccc(NC(C)=O)cc4)[C@@H](O)[C@H](O)[C@H]3O)ccc2Cl)cc1 [Example 61, N-(4-{(2S,3S,4R,6R,6S)-6-[4-Chloro-3-(4-ethoxy-benzyl)-phenyl]-3,4,6-trihydroxy-tetrahydro-pyran-2-ylmethylsulfanyl}-phenyl)-acetamide] |
| 9 nM | – | CCOc1ccc(Cc2cc([C@@H]3O[C@H](CSc4cccc(NC(=O)CC)c4)[C@@H](O)[C@H](O)[C@H]3O)ccc2Cl)cc1 [Example 67, N-(3-{(2S,3S,4R,5R,6S)-6-[4-Chloro-3-(4-ethoxy-benzyl)-phenyl]-3,4,5-trihydroxy-tetrahydro-pyran-2-ylmethylsulfanyl}-phenyl)-propionamide] |
| 28 nM | – | CCOc1ccc(Cc2cc([C@@H]3O[C@H](CSc4cccc(NC(=O)OC)c4)[C@@H](O)[C@H](O)[C@H]3O)ccc2Cl)cc1 [Example 69] |
| 61 nM | – | CCOc1ccc(Cc2cc([C@@H]3O[C@H](CSc4cccc(CO)c4)[C@@H](O)[C@H](O)[C@H]3O)ccc2Cl)cc1 [Example 77, (2S,3R,4R,5S,6S)-2-[4-Chloro-3-(4-ethoxy-benzyl)-phenyl]-6-(3-hydroxymethyl-phenylsulfanylmethyl)-tetrahydro-pyran-3,4,5-triol] |
| 72 nM | – | CCOc1ccc(Cc2cc([C@@H]3O[C@H](COc4cccc(C(=O)NC)c4)[C@@H](O)[C@H](O)[C@H]3O)ccc2Cl)cc1 [Example 83, 3-{(2R,3S,4R,5R,6S)-6-[4-Chloro-3-(4-ethoxy-benzyl)-phenyl]-3,4,5-trihydroxy-tetrahydro-pyran-2-ylmethoxy}-N-methyl-benzamide] |
| 11 nM | – | CCOc1ccc(Cc2cc([C@@H]3O[C@H](COc4cccc(C(=O)N5CCCC5)c4)[C@@H](O)[C@H](O)[C@H]3O)ccc2Cl)cc1 [Example 84, (3-{(2R,3S,4R,5R,6S)-6-[4-Chloro-3-(4-ethoxy-benzyl)-phenyl]-3,4,5-trihydroxy-tetrahydro-pyran-2-ylmethoxy}-phenyl)-pyrrolidin-1-yl-methanone] |
| 9 nM | – | CCOc1ccc(Cc2cc([C@@H]3O[C@H](COc4cccc(C(=O)N5CCC5)c4)[C@@H](O)[C@H](O)[C@H]3O)ccc2Cl)cc1 [Example 85] |
